# In patent US5705687A, “Neurotropic drug and method for preparation of same” (priority 1993, dated 1998):
# “And” between values parts separate entries of the source, which are not always exact repeats. Equal values may be shown once. Where a name gives a salt, the structure may show the parent alone. Read-outs that look alike come from different tables or passages of the source.
# What was measured:
# [1] = system: mice; experiment: Soporific action of barbital sodium
# [2] = system: central nervous system; experiment: Neuropharmacological screening, overall findings; type: in vivo, mice; settings: examined dosage range
# Experimental: (§1) The myorelaxing effect of the new compounds was tested by the method of the "rotating rod"(Dunham N. W., Miga T. S., A note on a simplex apparatus for detecting neurological deficit in rat and mice, J. Am. Pharm. Ass., 1957, vol. 46, No. 3, pp. 208-209), which allows one to record any abnormalities in coordination and balance, as well as ataxia. The mice in the laboratory tests were placed on a horizontal rod, 2 cm in diameter, rotating at a speed of 5 revolutions per minute. The object was to register the number of mice which were able to maintain equilibrium on the rod for two minutes. Any presence of a myorelaxing component was considered to be a side effect of the substance being studied.
# [3] = Solubility and hygroscopicity; type: physicochemical
# [4] = system: mice; experiment: Hemic hypoxia (sodium nitrite), lifespan; type: in vivo; settings: 400 mg/kg i.p., control
# Experimental: (§2) The antihypoxic properties of the new compounds were tested in the models of hypoxic normobaric, hemic and histotoxic hypoxia. The hypoxic (hypercapnic) normobaric hypoxia was induced by placing the mice in hermetically sealed transparent boxes, subdivided into compartments, 80 cm^3 each. The animals were observed until all respiratory movements ceased. The hemic hypoxia was induced by the intraperitoneal administration of sodium nitrite in a dose of 400 mg/kg. The hystotoxic hypoxia was induced by the intraperitoneal administration of sodium nitroprussiate, in a dose of a 20 mg/kg dosage.
# [5] = system: mice; experiment: Soporific action of hexobarbital
# [6] = cited from earlier work
# [7] = system: mice; experiment: Conditioned reaction of passive avoidance (CPRA), amnesia by electric shock; type: in vivo; settings: 250 to 500 mg/kg; earlier tests
# Description: The effect produced by the new substance on the processes of the central nervous system was examined on the model of one-time training of mice, of conditioned reaction of passive avoidance (CPRA), where the amnesic effect was produced by electric shock. During the tests, a two-section chamber was used to condition a certain reflex to the lit and darkened sections. First, for two minutes, the amount of time was registered, that a mouse spent in the lit section before entering the darkened section. Then, while in the darkened section, the animal would receive a single electric shock through the electrode floor (training). The training was immediately followed by an electric shock (50 Hz, 0.2 see). […] The substance was intraperitoneally administered 40 min. prior to the start of the training, the control group received a physiological solution. […] The anti-amnesic properties of the new compound are represented by an increase in the latent period before and after the training. (Δt)
# [8] = background statement on the known drug; cited from earlier work
# [9] = system: mice; experiment: Histotoxic hypoxia (sodium nitroprussiate), lifespan; type: in vivo; settings: 250, 500 and 1000 mg/kg (two values for three doses (so in the source))
# Experimental: as §2
# [10] = system: mice; experiment: Orientation reflexes: test of ascent onto an inclined net
# [11] = system: mice; experiment: Spontaneous motor activity (SMA), 40-channel automatic motor meter; settings: for Average SMA, M ± m: control 524.0 ± 99.2; for Relative change in activity (%): control = 100
# [12] = system: mice; experiment: Rotating rod: myorelaxation and movement coordination; type: in vivo, white crossbred mice
# Experimental: as §1
# [13] = Acute toxicity in mice (Litchfield-Wilcockson); type: in vivo, white crossbred mice; settings: mouse, in vivo
structure (smiles),measurement,setting,value
"CCC1(CC)C(=O)NC(=O)NC1=O [Barbitol sodium, barbital sodium, reference compound]","Lateral position (min), barbiturate alone","[1]; 250 mg/kg i.p., control of each experiment",31.8 ± 1.1 min and 34.5 ± 1.4 min and 38.1 ± 1.3 min
"CC(C)(CO)C(=O)C(=O)NCCCC(=O)O [KPA, N-(4-hydroxy-3,3-dimethyl-2-oxo-1-butyryl)γ-aminobutyric acid]",depressing effect on the animals,[2],no depressing effect
same,solubility in acetone or chloroform,"[3]; acetone, chloroform",not in acetone or chloroform
same,solubility in water and alcohol,"[3]; water, alcohol",readily soluble
"O=N[O-].[Na+] [Na-nitrite, sodium nitrite, reference compound]","Average lifespan (sec), hypoxia inducer alone",[4],790.5 ± 21.1 s
"CN1C(=O)NC(=O)C(C)(C2=CCCCC2)C1=O (stereo not shown) [hexobarbital, reference compound]","Duration of sleep (min), barbiturate alone","[5]; 100 mg/kg i.p., control",46.3 ± 2.3 min
same,"Lateral position (min), barbiturate alone","[5]; 100 mg/kg i.p., control",2.4 ± 0.15 min
"CC(C)(CO)[C@@H](O)C(=O)NCCCC(=O)O [pantogam, calcium salt of the D-homopantothenic acid, reference compound]",increase of soporific effect,"[5]; 500 mg/kg, hexobarbital, indicated earlier",40%
same,undesirable side effects,"[6]; known drug, high dose",depression and myorelaxation
same,penetration of the hematoencephalitic barrier compared to aminalon,[6]; vs aminalon,better penetration
same,anti-amnesic effect (in words),[7],moderate a anti-amnesic effect
same,"anti-amnesic effect, share of latent period in animals not exposed to the electric shock",[7],60-75%
same,therapeutic index,[8],3.3
same,increase in lifespan,[9],57% and 85%
same,ED50,"[10]; Mus musculus, ip, read-out: average effective dose (DE50)",680 mg/kg
same,time of maximum strength,"[10]; after administration, orientation reflex",60 min
same,effect on orientation reflex,[10]; mice,suppressed the orientation reflex
same,decrease in number of runs in the motor meter,[11]; 500 mg/kg,30%
same,"Average SMA, M ± m",[11]; 500 mg/kg i.p.,392.0 ± 307
same,Relative change in activity (%),[11]; 500 mg/kg i.p.,74.8%
same,"Average SMA, M ± m","[11]; 1000 mg/kg i.p., P < 0.05",176.0 ± 116
same,Relative change in activity (%),[11]; 1000 mg/kg i.p.,33.6%
same,decrease in motor activity,"[11]; 1000 mg/kg, the maximum tolerable dose",70%
same,effect on motor activity (in words),"[11]; SMA test, mice",depressing effect on motor activity
same,loss of movement coordination (side effect),[12]; 300 mg/kg and higher,loss of movement coordination
same,time of maximum strength,"[12]; after injection, rotating rod",30 min
same,return of movement coordination and muscle strength (not until),[12]; after the start of the experiment,1.5 h
same,increase of soporific effect,"[1]; 500 mg/kg, barbital sodium, indicated earlier",20%
same,LD50,"[13]; intravenous, read-out: DL50 (the source's name)",1080 mg/kg
same,LD50,"[13]; ip, earlier experiments, identical conditions, read-out: DL50 (acute toxicity)",2250 mg/kg
same,MTD,"[13]; ip, read-out: maximum tolerance level",1000 mg/kg
